Biological target: MsbA (Escherichia coli, UniProt P60752)
Test: isothermal titration calorimetry
Type: binding

MsbA, sequence (P60752 2-582): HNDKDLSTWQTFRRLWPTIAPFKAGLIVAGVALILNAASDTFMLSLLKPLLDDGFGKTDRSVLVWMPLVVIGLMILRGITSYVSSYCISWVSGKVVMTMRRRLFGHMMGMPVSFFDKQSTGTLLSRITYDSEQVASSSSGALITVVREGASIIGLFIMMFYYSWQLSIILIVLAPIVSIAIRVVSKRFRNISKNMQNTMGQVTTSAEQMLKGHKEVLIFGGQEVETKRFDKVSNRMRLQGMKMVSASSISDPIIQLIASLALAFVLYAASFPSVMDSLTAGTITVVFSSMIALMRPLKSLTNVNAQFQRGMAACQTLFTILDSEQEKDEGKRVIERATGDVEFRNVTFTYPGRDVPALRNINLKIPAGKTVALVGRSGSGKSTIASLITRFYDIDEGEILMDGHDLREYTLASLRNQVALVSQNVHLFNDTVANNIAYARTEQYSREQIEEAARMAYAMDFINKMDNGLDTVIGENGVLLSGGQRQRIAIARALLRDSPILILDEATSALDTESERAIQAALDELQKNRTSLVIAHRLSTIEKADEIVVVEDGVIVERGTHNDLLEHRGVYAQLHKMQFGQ

## Nc1ncnc2c1ncn2[C@@H]1O[C@H](COP(=O)(O)OP(=O)(O)NP(=O)(O)O)[C@@H](O)[C@H]1O [AMP-PNP]
  Kd: 5.1 µM

From publication doi:10.1101/2021.06.15.448612v1 (biorxiv, 2021)
